According to patent publication US11926860B2, “Method of screening inhibitor of caspase activity by lipopolysaccharide” (KOREA INSTITUTE OF SCIENCE AND TECHNOLOGY, priority 2021, dated 2024):

Assays:
[1] = FP binding assay of ALEXA FLUOR 488-CARD and LPS; conditions: for effect of additive on binding of CARD and LPS: buffer C with 0.1 mg/mL BSA, 0.01% NP-40, or 1 mM MC (MgCl2+CaCl2), 37° C. 1 hour
Procedure: Fluorescence polarization (FP) was measured with an APPLISKAN microplate reader (ThermoFisher) using 485 nm excitation and 535 nm emission filters. The FP value was calculated according to the following equation: FP (mP)=1000×(Is−G×Ip)/(Is+G×Ip). In the equation, Is represents a parallel (equivalent) emission intensity, Ip represents a perpendicular emission intensity, and G represents a lattice coefficient 0.877.
FP binding assay was performed by adding 200 μL of a reaction mixture to each well of a black 96-well plate (SPL Life Sciences). The reaction mixture includes 50 nM ALEXA FLUOR 488-CARD (tracer) with increasing concentrations of LPS-Ra (in the range of 0 μM to 12.8 μM, a molecular weight of LPS-Ra is assumed to be 3,835 g/mole, Sigma-Aldrich) in a buffer C or an indicated buffer. The reaction mixture was incubated at 37° C. for 30 minutes to 4 hours before reaction. FP values are expressed as a function of LPS-Ra concentration. FP binding curves of His-Cys-CARD (ALEXA FLUOR 488-CARD) or ALEXA FLUOR 488 alone (dye) with respect to the concentrations of LPS are shown in FIG. 2E.
Apparent equilibrium dissociation constants (Kd^app) were calculated from the nonlinear regression curve fit, as analyzed in GRAPHPAD PRISM 8 from the FP binding curves.
An FP binding curve from FP values measured with buffer C (50 mM Tris-HCl pH 7.0, 150 mM NaCl) supplemented with additives such as 0.1 mg/mL BSA, 0.01% NP-40, or 1 mM MC (MgCl2+CaCl2) is shown in FIG. 3A. An FP binding curve from FP values measured by incubating ALEXA FLOUR 488-CARD serially diluted with buffer C for 0.5 hours to 4 hours is shown in FIG. 3B (grey area: range of 20 nM to 50 nM). An FP binding curve from FP values measured by incubating different concentrations of LPS-Ra in buffer C for 0.5 hours to 4 hours is shown in FIG. 3D. An FP binding curve from FP values measured with buffer C supplemented with different concentrations of DMSO is shown in FIG. 3E. In addition, LPS-Ra concentration-dependent Z′ factor was evaluated in buffer C supplemented with 0% to 10% DMSO. […]

binding of CARD and LPS = biological target: T1, binding of CARD and LPS (Homo sapiens, UniProt P49662, M1C); experiment: FP competition assay of hit compounds; conditions: compound 50 μM to 0.022 μM, 6.4 μM LPS-Ra, 50 nM tracer, buffer C, 37° C. 1 hour
T1 construct: three types of cysteine-inserted CARD(1-80) variants (Cys-His-CARD, His-Cys-CARD (M1C-CARD), and His-CARD-Cys); His6 (N); made in house; host or cells: E. coli CLEARCOLI BL21(DE3)
T1 sequence (P49662 1-80 M1C): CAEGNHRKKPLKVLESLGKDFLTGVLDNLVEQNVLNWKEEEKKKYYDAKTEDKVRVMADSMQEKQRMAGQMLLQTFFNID
Procedure: In detail, the FP competition assay was performed by mixing 50 nM of tracer, 6.4 μM of LPS-Ra, and 3-fold serially diluted hit compound (50 μM to 0.022862 μM) in buffer C. The mixture was incubated at 37° C. for 1 hour before measurement. FP values were expressed as a function of compound concentrations, and IC50 values were obtained from a sigmoidal curve fit, as analyzed in GRAPHPAD PRISM 8.

[2] = Surface plasmon resonance (SPR) of Casp-4 constructs on immobilized LPS; format: binding, E. coli; conditions: for Kd: 25° C., NH-LPS O55:B5 on CM5 chip, HBS-E, read-out: dissociation constant
Procedure: In addition, the binding affinity between Casp-4 and LPS was determined by a surface plasmon resonance (SPR) experiment. The SPR experiment was performed at 25° C. using a BIACORE T200 (Cytiva). A filtered and degassed running buffer (HBS-E) was prepared prior to use. Amine-derived LPS O55:B5 (NH-LPS, Sigma-Aldrich) was prepared by a method described in P. T. Wong et al., J Mater Chem B, 2015, 3, 1149-1156, herein incorporated by reference. NH-LPS was immobilized on a CM5 sensor chip (Cytiva) using an amine coupling method (480 RU), and blocked with 1 M ethanolamine (pH 8.5). Purified proteins of the indicated concentration were injected, and the resulting sensorgrams were analyzed using a BIACORE T200 Evaluation software.

[3] = Tryptophan fluorescence spectrometry of Casp-4 constructs binding to LPS; conditions: for Kd: 1 μM protein, LPS-Ra 0 μM to 50 μM, HBS-E buffer, 37° C. 30 minutes, fluorescence intensity at 334 nm, read-out: apparent equilibrium dissociation constant (Kd^app)
Procedure: Apparent dissociation constants were measured by tryptophan fluorescence spectrometry. […] Apparent dissociation constant values were calculated by analyzing the fluorescence emission spectra.
Fluorescence spectra were obtained with a FluoroMate FS-2 fluorescence spectrophotometer (Sinco) equipped with a quartz cuvette with a 5 mm path length. 1 μM of the recombinant protein was mixed with increasing concentrations of LPS-Ra (in the range of 0 μM to 50 μM) in an HBS-E buffer (10 mM HEPES pH 7.5, 150 mM NaCl, 3 mM EDTA), and incubated at 37° C. for 30 minutes. The sample was excited at 280 nm, and emission spectra at 300 nm to 500 nm were recorded with an excitation/emission slit width of 2.5/5 nm, respectively. The fluorescence intensity of the sample was corrected by subtracting the background intensity of LPS alone. A difference in the fluorescence intensity at 334 nm was expressed as a function of LPS-Ra concentration, and the apparent equilibrium dissociation constant (Kd^app) was calculated from the nonlinear regression curve fit, as analyzed in GRAPHPAD PRISM 8. Graphs showing the emission spectra of the tryptophan residue in full-length C258A-Casp-4, CARD, and ΔCARD-C258A-Casp-4 in LPS-Ra (0 μM to 50 μM) are shown in FIG. 1B.

Molecule: bovine serum albumin [BSA]
- effect of additive on binding of CARD and LPS [1]: inhibited

Molecule: CC1=NN(c2ccc(C)c(C)c2)C(=O)/C1=N\Nc1cccc(-c2cccc(C(=O)O)c2)c1O [C-11, Eltrombopag Olamine]
- IC50 (FP signal decrease, concentration-dependent) (binding of CARD and LPS): μM level

Molecule: CN(C)c1ccc(C(=C2C=CC(=[N+](C)C)C=C2)c2ccc(N(C)C)cc2)cc1 [C-5, Crystal violet]
- IC50 (FP signal decrease, concentration-dependent) (binding of CARD and LPS): μM level

Molecule: CN1CCN(c2ccc(C(=O)Nc3n[nH]c4ccc(Cc5cc(F)cc(F)c5)cc34)c(NC3CCOCC3)c2)CC1 [C-19, Entrectinib]
- IC50 (FP signal decrease, concentration-dependent) (binding of CARD and LPS): μM level

Molecule: CCOc1ccc2nc3cc(N)ccc3c(N)c2c1 [C-8, Ethacridine lactate]
- IC50 (FP signal decrease, concentration-dependent) (binding of CARD and LPS): μM level

Molecule: CN1CCN(c2nc(C3=C(c4c[nH]c5ccccc45)C(=O)NC3=O)c3ccccc3n2)CC1 [C-15, Sotrastaurin]
- IC50 (FP signal decrease, concentration-dependent) (binding of CARD and LPS): μM level

Molecule: NP-40
- effect of additive on binding of CARD and LPS [1]: inhibited

Molecule: O=C1c2c(O)ccc(O)c2C(=O)c2c(NCCNCCO)ccc(NCCNCCO)c21 [C-6, Mitoxantrone]
- IC50 (FP signal decrease, concentration-dependent) (binding of CARD and LPS): μM level

Molecule: Cc1cc(Nc2ncc(Cl)c(Nc3ccccc3S(=O)(=O)C(C)C)n2)c(OC(C)C)cc1C1CCNCC1 [C-16, Ceritinib]
- IC50 (FP signal decrease, concentration-dependent) (binding of CARD and LPS): μM level

Molecule: Cn1cc(C2=C(c3cn(C4CCN(Cc5ccccn5)CC4)c4ccccc34)C(=O)NC2=O)c2ccccc21 [C-13, Enzastaurin]
- IC50 (FP signal decrease, concentration-dependent) (binding of CARD and LPS): μM level

B1: ΔCARD-C258A-Casp-4: CARD truncated Casp-4 (81-377, C258A modification) (protein, UniProt P49662 81-377, looked up, fragment C258A)
chain: QISPNKKAHPNMEAGPPESGESTDALKLCPHEEFLRLCKERAEEIYPIKERNNRTRLALIICNTEFDHLPPRNGADFDITGMKELLEGLDYSVDVEENLTARDMESALRAFATRPEHKSSDSTFLVLMSHGILEGICGTVHDEKKPDVLLYDTIFQIFNNRNCLSLKDKPKVIIVQAARGANRGELWVRDSPASLEVASSQSSENLEEDAVYKTHVEKDFIAFCSSTPHNVSWRDSTMGSIFITQLITCFQKYSWCCHLEEVFRKVQQSFETPRAKAQMPTIERLSMTRYFYLFPGN
- binding to LPS ([2]; FIG. 1C): not identified
- binding to LPS ([3]; tryptophan fluorescence, FIG. 1B): not identified

B2: C258A-Casp-4: Catalytically inactive full-length Casp-4 (1-377, C258A modification) (protein, UniProt P49662 1-377, looked up, variant C258A)
chain: MAEGNHRKKPLKVLESLGKDFLTGVLDNLVEQNVLNWKEEEKKKYYDAKTEDKVRVMADSMQEKQRMAGQMLLQTFFNIDQISPNKKAHPNMEAGPPESGESTDALKLCPHEEFLRLCKERAEEIYPIKERNNRTRLALIICNTEFDHLPPRNGADFDITGMKELLEGLDYSVDVEENLTARDMESALRAFATRPEHKSSDSTFLVLMSHGILEGICGTVHDEKKPDVLLYDTIFQIFNNRNCLSLKDKPKVIIVQAARGANRGELWVRDSPASLEVASSQSSENLEEDAVYKTHVEKDFIAFCSSTPHNVSWRDSTMGSIFITQLITCFQKYSWCCHLEEVFRKVQQSFETPRAKAQMPTIERLSMTRYFYLFPGN
modifications: full-length
- Kd [2]: 2400 nM
- Kd [3]: 5.3 ± 0.5 µM

B3: CARD: caspase activation and recruitment domain of Casp-4, residues 1-80, His6 tag at the N-terminus (protein)
chain: MAEGNHRKKPLKVLESLGKDFLTGVLDNLVEQNVLNWKEEEKKKYYDAKTEDKVRVMADSMQEKQRMAGQMLLQTFFNID
modifications: N-terminal His6 tag; Caspase-4 CARD polypeptide
- Kd [2]: 2100 nM
- Kd [3]: 6.5 ± 0.8 µM

B4: ALEXA FLOUR 488-CARD: ALEXA FLUOR 488-labeled His-Cys-CARD (M1C-CARD), tracer for FP assays (conjugate, UniProt P49662 1-80, looked up, fragment M1C)
chain: CAEGNHRKKPLKVLESLGKDFLTGVLDNLVEQNVLNWKEEEKKKYYDAKTEDKVRVMADSMQEKQRMAGQMLLQTFFNID
modifications: CARD Alexa Fluor 488 label; His tag
notes: ALEXA FLUOR 488-labeled His-Cys-CARD (M1C-CARD), tracer for FP assays
- Kd ([1]; 50 nM ALEXA FLOUR 488-CARD, LPS-Ra 0 μM to 12.8 μM, buffer C, 37° C., read-out: Kd^app): 2200 ± 200 nM
